Patent publication US20230416196A1, “DIMER OF BIGUANIDINES AND THEIR THERAPEUTIC USES” (INSTITUT CURIE, priority 2020, published 2023)
pIC50: −log10 of the molar value. Structures can show the parent of a compound that is named as a salt.

Experiments:
U937 cells = assay: Cell viability assay (CellTiter-Blue) on lymphoma cell line U937; type: cell-based; details: Homo sapiens, U-937, 72 h treatment
Procedure: Cell culture. U-937 cells were grown in an incubator equilibrated at 37° C. with 5% CO2, grown to confluence and split with Trypsin/EDTA (Gibco, […]01) once or twice a week according to confluence. U-937 (ATCC, HTB-132) were cultured in RPMI 1640 GLUTAMAX (ThermoFisher Scientific, 61870044) supplemented with 10% Fetal Bovine Serum (FBS, Gibco, 10270-106) and Penicillin-Streptomycin mixture (BioWhittaker/Lonza, DE17-602E). […] Peripheral blood samples were collected from distinct healthy donors (Etablissement Français du Sang). Pan monocytes were isolated by negative magnetic sorting using microbeads according to the manufacturer's instructions (Miltenyi Biotec, 130-096-537), and cultured in RPMI 1640 supplemented with glutamine (Thermo Fisher Scientific, 61870010), 10% fetal bovine serum and exposed to granulocyte-macrophage colony-stimulating factor (GM-CSF, Miltenyi Biotec, 130-093-866, 100 ng/mL) to induce differentiation into macrophages (MDM). […] Cell viability assay (IC50). Cell viability assay was carried out by plating 1000 cells/well in 96-well plates. Cells were treated for 72 h in a range between to 25 nM and […] using serial dilutions. The inventors followed the manufacturer's protocol. In brief, CellTiter-Blue® reagent (G8081, Promega) was added after 72 h treatment and cells were incubated for 3 h before recording fluorescence intensities (λex. 560/20 nm; λem. 590/10 nm) using a Perkin Elmer Wallac 1420 Victor2 Microplate Reader.

macrophage activation = assay: Macrophage activation, copper(I)-targeting agents; type: cell-based
HMLER CD44^high/CD24^low = assay: Cell viability assay (CellTiter-Blue) on breast cancer stem cell model HMLER CD44high/CD24low; type: cell-based, human; details: for pIC50: Homo sapiens, cell viability, 72 h treatment, read-out: IC50 against HMLER CD44^high/CD24^low
Procedure: Cell viability assay (IC50). Cell viability assay was carried out by plating 1000 cells/well in 96-well plates. Cells were treated for 72 h in a range between to 25 nM and […] using serial dilutions. The inventors followed the manufacturer's protocol. In brief, CellTiter-Blue® reagent (G8081, Promega) was added after 72 h treatment and cells were incubated for 3 h before recording fluorescence intensities (λex. 560/20 nm; λem. 590/10 nm) using a Perkin Elmer Wallac 1420 Victor2 Microplate Reader.
Cell culture. MCF7 (ATCC) cells, DU-145 (ATCC) cells and FC1245 cells were cultured in Dulbecco's Modified Eagle Medium GlutaMAX (DMEM, ThermoFisher Scientific, 61965059) supplemented with 10% Fetal Bovine Serum (FBS, Gibco, 10270-106) and Penicillin-Streptomycin mixture (BioWhittaker/Lonza, DE17-602E) unless stated otherwise. Primary lung circulating tumor cells (Celprogen, 36107-34CTC, Lot 219411) were grown using stem cell complete media (Celprogen, M36102-29PS) until the third passage. Circulating cancer cells were grown in stem cell ECM T75-flasks (Celprogen, E36102-29-T75) and ECM 6-well plates (Celprogen, E36102-29-6Well). HMLER cells ([…]) naturally repressing E-cadherin, obtained from human mammary epithelial cells infected with a retrovirus carrying hTERT, SV40 and the oncogenic allele H-rasV12, and HMLER CD44 and TFRC ko clones were cultured in DMEM/F12 (Thermo Fisher Scientific, 31331093) supplemented with 10% FBS (Thermo Fisher Scientific, 10270106), 10 μg/mL insulin (Sigma-Aldrich, 10516), 0.5 μg/mL hydrocortisone (Sigma-Aldrich, H0888) and 0.5 μg/mL puromycin (Life Technologies, A11138-02), unless stated otherwise. HMLER CD44^high cells were also supplemented with 10 ng/mL EGF (Miltenyi Biotech, 130-097-750).

[1] = system: activated macrophages (act. MDM), CD86 activation marker; assay: CD86 macrophage activation marker by flow cytometry in LPS/IFNγ-activated monocyte-derived macrophages (Example 4); type: cell-based, human; details: LCCs at 10 μM, 24 h co-treatment; several values per compound
Procedure: Cell culture. U-937 cells were grown in an incubator equilibrated at 37° C. with 5% CO2, grown to confluence and split with Trypsin/EDTA (Gibco, […]01) once or twice a week according to confluence. U-937 (ATCC, HTB-132) were cultured in RPMI 1640 GLUTAMAX (ThermoFisher Scientific, 61870044) supplemented with 10% Fetal Bovine Serum (FBS, Gibco, 10270-106) and Penicillin-Streptomycin mixture (BioWhittaker/Lonza, DE17-602E). […] Peripheral blood samples were collected from distinct healthy donors (Etablissement Français du Sang). Pan monocytes were isolated by negative magnetic sorting using microbeads according to the manufacturer's instructions (Miltenyi Biotec, 130-096-537), and cultured in RPMI 1640 supplemented with glutamine (Thermo Fisher Scientific, 61870010), 10% fetal bovine serum and exposed to granulocyte-macrophage colony-stimulating factor (GM-CSF, Miltenyi Biotec, 130-093-866, 100 ng/mL) to induce differentiation into macrophages (MDM). […] Flow cytometry. Cells were washed with ice-cold 1×PBS, incubated with Fc block (Human TruStain FcX, Biolegend, 422302, 1/20) for 15 min, incubated with antibodies for 20 min at 4° C. and washed before analysis using a BD LSRFortessa X-20. Macrophages were analyzed with an antibody panel consisting of antibodies against the following cell surface proteins: CD44, CD80, CD86 and TfR1. The data were analyzed with FlowJo software v. 10.0.00003. […]

| IC50 (U937 cells) [µM] | Compound | further results |
| --- | --- | --- |
| 2 | CCCNC(=N)NC(=N)NCCCCCCCCNC(=N)NC(=N)NCCC [LCC-8,3] |  |
| 1 | CCNC(=N)NC(=N)NCCCCCCCCCCNC(=N)NC(=N)NCC [LCC-10,2] |  |
| 20 | N=C(N)NC(=N)NCCCCCCCCCCNC(=N)NC(=N)N [LCC-10] | improved IC50 compared with metformin (HMLER CD44^high/CD24^low; HMLER CD44high/CD24low): about 400 fold; pIC50 (HMLER CD44^high/CD24^low): 4.24 |
| 0.6 | CCCNC(=N)NC(=N)NCCCCCCCCCCNC(=N)NC(=N)NCCC [LCC-10,3] | Effect on CD86 macrophage activation marker (Flow cytometry) (% of activation marker compared to its level in activated macrophages) [1]: 22% |

Continued, molecule first:

| Compound | IC50 (U937 cells) [µM] | further results |
| --- | --- | --- |
| N=C1NCCCCCCCCCCCCNC(=N)NC(=N)NCCCCCCCCCCCCNC(=N)N1 [Coronaformin-12,12] | 0.5 |  |
| N=C1NCCCCCCCCNC(=N)NC(=N)NCCCCCCCCNC(=N)N1 [Coronaformin-8,8] | 3 |  |
| CC(C)(S)[C@@H](N)C(=O)O [D-Pen] |  | efficacy on macrophage activation (macrophage activation): lack of efficacy |
| CN(CCCCCCCCCCCCN(C)C(=N)NC(=N)N)C(=N)NC(=N)N [LCC-12Me] | 6 |  |
| CN(C)C(=N)NC(=N)N [Metformin, 1,1-dimethylbiguanid hydrochloride, reference compound] | 10000 | pIC50 (HMLER CD44^high/CD24^low): 1.65 |
| CN(CCCCCCCCN(C)C(=N)NC(=N)N)C(=N)NC(=N)N [LCC-8Me] | 150 | Effect on CD86 macrophage activation marker (Flow cytometry) (% of activation marker compared to its level in activated macrophages) [1]: 89% |
| [NH4+].[NH4+].[SH-].[SH-].[S]=[Mo]=[S] [ATTM] |  | efficacy on macrophage activation (macrophage activation): lack of efficacy |
| N=C1NCCCCCCCCCCNC(=N)NC(=N)NCCCCCCCCCCNC(=N)N1 [Coronaformin-10,10] | 1 |  |
